According to patent US20100069316A1, “TREATMENT FOR MULTIPLE MYELOMA” (Ares Trading S.A., priority 2006, published 2010):
pIC50: −log10 of the molar value. Where two headings read alike, the source gives them in different places.

Tests used:
Type in all cases: cell-based, human
XG12 myeloma cell line = test: Cell proliferation assay (tritiated thymidine incorporation), XG12; conditions: for pIC50: Homo sapiens; for IC10: XG12, concentration yielding 10% inhibition of proliferation
Experimental: (§1) Myeloma cells were harvested in the exponential growth phase (at day 3 after culture passage when the cell concentration is around 5×10^5 cells/ml). Cells were washed twice, cultured for 3 hours in RPMI1640 and 10% FCS, washed twice. This makes it possible to remove cell-bound growth factors (in particular recombinant IL-6). Then cells are plated in 96-well flat-bottomed microplates at various concentrations depending on their doubling time: • 5×10^3 cells/well in 100 μl for the cell lines: XG-1, XG-7 • 10^4 cells/well in […] for the cell lines: XG-2, XG-4, XG-6, XG-11, PRMI8226, L363 • 2×10^4 cells/well in 100 μl for the cell lines: XG-3, XG-12, XG-13, XG-14, XG-19, XG-20
(§2) The culture medium used were: • PRMI1640, 10% FCS and 0.5 ng/ml of IL-6 for XG-1, XG-2, XG-3, XG-4, XG-6, XG-7, XG-11, XG-12, XG-13, XG-19, XG-20 cells • X-VIVO20 and 0.5 ng/ml IL-6 for XG-14 cells • PRMI1640 and 10% FCS for RPMI8226 and L363 cells
(§3) The diluted compounds, DMSO or control culture medium were added in 100 μl at the start of the culture. Three culture wells were done for one compound dilution and the experiments were done twice (finally six culture wells for one compound dilution).
(§4) Cells were cultured for 4 days. Eight hours before the end of the culture, 0.5 μCi of tritiated thymidine were added in 50 μl of RPMI1640 and 10% FCS. Cells were then extracted with a cell collector and the thymidine incorporation was determined using a beta cell counter.
(§5) For each experiment, the mean tritiated thymidine incorporations (mean values determined on three culture wells) were plotted against the logarithmic concentrations of the compound. The curves were fitted with exponential regression, which was determined using the concentrations defining the inhibition response (usually 3-4 concentrations).
(§6) The concentrations yielding 50% and 90% inhibition of the proliferation of myeloma cells were determined with these regression curves.
(§7) The concentration yielding 10% (IC10) or 50% (IC50) inhibition of the myeloma cell lines were determined and the data are listed in Table 2.
(§8) Compound A was tested in combination with melphalan or Velcade. Increasing concentration of compound A (0, 0.01, 0.03, 0.12, 0.37, 1.1, 3.1, 10, 30 μM) were applied on 4 myeloma cell lines alone or in combination with Velcade or melphalan at concentration yielding around 10% or 50% inhibition.

XG3 myeloma cell line = test: Cell proliferation assay (tritiated thymidine incorporation), XG3; conditions: for pIC50: Homo sapiens; for IC10: XG3, concentration yielding 10% inhibition of proliferation
Experimental: as §1, §2, §3, §4, §5, §6, §7, §8

XG7 myeloma cell line = test: Cell proliferation assay (tritiated thymidine incorporation), XG7; conditions: for pIC50: Homo sapiens; for IC10: XG7, concentration yielding 10% inhibition of proliferation
Experimental: as §1, §2, §3, §4, §5, §6, §7, §8

L363 myeloma cell line = test: Cell proliferation assay (tritiated thymidine incorporation), L363; conditions: for pIC50: Homo sapiens; for IC10: L363, concentration yielding 10% inhibition of proliferation
Experimental: as §1, §2, §3, §4, §5, §6, §7, §8

| pIC50 (XG12 myeloma cell line; XG12, proliferation, read-out: IC50) | pIC50 (XG3 myeloma cell line; XG3, proliferation, read-out: IC50) | pIC50 (XG7 myeloma cell line; XG7, proliferation, read-out: IC50) | pIC50 (L363 myeloma cell line; L-363, L363, proliferation, read-out: IC50) | SMILES | pIC50 (XG12 myeloma cell line) | IC10 (XG12 myeloma cell line) | pIC50 (XG3 myeloma cell line) | IC10 (XG3 myeloma cell line) | pIC50 (XG7 myeloma cell line) | IC10 (XG7 myeloma cell line) | pIC50 (L363 myeloma cell line; L-363) | IC10 (L363 myeloma cell line) |
| --- | --- | --- | --- | --- | --- | --- | --- | --- | --- | --- | --- | --- |
|  |  |  |  | N[C@@H](Cc1ccc(N(CCCl)CCCl)cc1)C(=O)O [Melphalan, melphalan] | 5.91 | 318 nM | 5.77 | 490 nM | 5.93 | 409 nM | 6.34 | 110 nM |
| 8.41 | 8.66 | 8.46 | 8.08 | CC(C)C[C@H](NC(=O)[C@H](Cc1ccccc1)NC(=O)c1cnccn1)B(O)O [Velcade, bortezomib] |  | 1.6 nM |  | 1.6 nM |  | 1.4 nM |  | 4.9 nM |
